Results taken from patent US20020195406A1, “Compositions and methods for disinfecting small diameter water lines” (priority 2001, published 2002).
Several values for one entry are separate records, joined by “and”; a condition that tells them apart may be missing. Identical values can stand only once.

Experiments:
[1] = tested on: biofilms; settings: household bleach 5.25%, glutaraldehyde 3%, isopropanol 15.3%, cited from earlier work; for effluents from biofilms after contact: 15-hours contact; for recolonization returned to pretreatment levels by day: after 15-hours contact
[2] = tested on: dental unit biofilm bacteria; settings: 13% (130,000 ppm), used periodically in one facility; cited from earlier work
[3] = tested on: biofilm bacteria; settings: free chlorine; cited from earlier work
[4] = half reaction as printed; cited from earlier work
[5] = tested on: bacteria in biofilms of dental water unit lines; experiment: Microbial counts for a dental water unit after three consecutive-day 30-min treatments with 500 ppm ClO2 (Example 3); format: cell-based
Protocol: The level, however, is probably typical of the tap water in the UK, where this study was run. In this study the unit was treated as in Example 2, but on three consecutive days. Samples were taken of both the incoming supply water and from the unit before treatment on each day, with a 500 ppm ClO2 solution for 30-minutes, and also 1, 2 and 5 days after the last treatment. This schedule is represented in the chart below, along with the data derived from each water sample.

[6] = tested on: bacteria in biofilms of dental water unit lines; experiment: Microbial counts from a dental water unit supplied with sterile water after a single 1000 ppm ClO2 30-minute exposure (Example 4); format: cell-based
Protocol: Treatment: This study was run on a dental water unit that had been supplied with sterile water for a week, after its normal operation with tap water. The intent of the study was to determine if a unit, once disinfected, and not then re-exposed to tap water with excess levels of micro-organisms, would show the rebound in organism levels that has been observed in the previous examples. The unit was exposed to a single 1000 ppm solution of ClO2, prepared and applied for 30 minutes, as fully described in Example 1. Sampling and counting techniques were also the same.

[7] = tested on: bacteria in biofilms of dental water unit lines; experiment: Microbial counts for a dental water unit after three staggered 30-min treatments with 500 ppm ClO2 (Example 2); format: cell-based
[8] = tested on: bacteria in biofilms of dental water unit lines; experiment: as above; format: cell-based; remark: listed apart in the source
Description: The level, however, is probably typical of the tap water in the UK, where this study was run. In this study three staggered 30-minute exposures to 500 ppm ClO2 solution were made, and counts then made from 1 to 4 days after each treatment. The techniques of treatment and sampling were similar to those described in Example 1. The ClO2 solution was similarly prepared, using half the level of sodium chlorite and hypochlorite initially, after acidification with citric acid.

[9] = tested on: bacteria in biofilms of dental water unit lines; experiment: Microbial counts for 6 dental water units after one 30-min treatment with 1000 ppm ClO2 (Example 1); format: cell-based; settings: for Microbial count of unit effluent water: individual units 31-40; for Microbial count of unit effluent water, mean: mean of 6 units
Protocol: Treatment: This example involved six dental water units, in a preliminary range finding study. The study was run during a particularly warm period of weather, where concomitant warmer municipal water temperatures would be expected to exacerbate biofilm contamination problems. The units were all of the same model, and were fitted with detachable water reservoirs. 100 ml of tap water was placed in each reservoir, and water was then run through the ultrasonic outlets for 30 seconds. Thereafter 30 ml of water was collected aseptically from each outlet. The reservoirs were then disconnected, and water run out of all outlets until the units ran dry. 100 ml of a 1000 ppm treatment solution, prepared as follows, was then placed in each reservoir:
10 ml of a 5.0% sodium chlorite solution was pipetted into a 100-ml volumetric flask already containing 75 ml of deionized water. To that was added 2.0 ml of 13% sodium hypochlorite solution (bleach). Immediately thereafter, 10.0 ml of a 1.9% citric acid solution was added, brought to volume with deionized water, sealed and the flask was agitated to mix the contents.
All outlets were then run until the solution came through each one. The solutions were then left in each unit for 30 minutes, after which the reservoirs were disconnected and the treatment solution was run out until all three outlets from each unit were dry. The reservoirs were then rinsed and filled with water (about 1 liter), and the water then run out of all three outlets until the reservoirs were empty.
[…] Samples were also collected from the tap from which water to operate the units was taken.
Microbial Culture: The water samples were vortex mixed, and then diluted in phosphate-buffered saline in two 10-fold dilutions. The samples were then plated onto yeast extract agar by means of a spiral plater. The plates were incubated at 22° C. for four days, after which they were counted.

[10] = tested on: microorganisms in small diameter water lines; settings: after 24 hours of treatment; approximately 10%; cited from earlier work

O=CCCCC=O [glutaraldehyde]
effluents from biofilms after contact [1]: free of recoverable bacteria
recolonization returned to pretreatment levels by day [1]: 3 days

OCl [hypochlorite]
effect on bacterial counts [2]: dramatic reductions in bacterial counts, but these rise again rather quickly

OCl [hypochlorous acid]
resistance of biofilm bacteria relative to unattached cells [3]: 150-3000 times
oxidation potential [4]: 1.49 V

CC(C)O [isopropanol]
effluents from biofilms after contact [1]: free of recoverable bacteria
recolonization returned to pretreatment levels by day [1]: 15 days

chlorine dioxide [ClO2]
unit count below that of the incoming water ([5]; Day 4): 0.9 logs
unit count below that of the incoming water ([5]; Day 5): 0.8 logs
count in the issuing water higher than the supply water ([5]; Day 8, five days after the last treatment): 1.0 log
Unit Count ([5]; day 2, 1 day after first 30-min 500 ppm treatment): 2.7 log cfu/ml
Unit Count ([5]; day 3, 1 day after second consecutive 500 ppm treatment): 1.8 log cfu/ml
Unit Count ([5]; day 4, 1 day after third consecutive 500 ppm treatment): 2.8 log cfu/ml
Unit Count ([5]; day 5, 2 days after last 500 ppm treatment): 2.3 log cfu/ml
Unit Count ([5]; day 8, 5 days after last 500 ppm treatment): 3.9 log cfu/ml
unit count below that of the incoming water ([5]; one day after the first 500 ppm treatment (day 2)): 1.2 logs
Unit Count ([6]; 4th day post-application): 0 cfu/ml
Microbial Counts, Unit Water ([6]; day 8, 1 day after single 1000 ppm 30-min exposure, sterile water supply, unit active): 2.26 log cfu/ml
Microbial Counts, Unit Water ([6]; day 9, 2 days after exposure, sterile water supply, active): 1.3 log cfu/ml
Microbial Counts, Unit Water ([6]; day 10, 3 days after exposure, sterile water supply, active): 1.3 log cfu/ml
Microbial Counts, Unit Water ([6]; day 11, 4 days after exposure, sterile water supply, active): 0 log cfu/ml
Microbial Counts, Unit Water ([6]; day 14, 7 days after exposure, after passive weekend (days 12-13)): 3.88 log cfu/ml
Unit Count ([6]; days 2-3 post-application, numerical value of 1.3 logs): 20 organisms per ml
Unit Count ([6]; one day after treatment, numerical value): 182 cfu/ml
further drop ([6]; subsequent 2 days after day 8): 10 fold
population drop ([6]; within a day of the ClO2 treatment): about 40,500 microbial organism per ml of water
drop of unit count ([6]; within a day of the ClO2 treatment, from pre-treatment average of 4.61 logs): 2.35 log cfu/ml
Unit Microbial Count ([7]; day 7, seven days after first 500 ppm treatment, before second): 5.83 log cfu/ml
Unit Microbial Count ([7]; day 18, 7 days after third 500 ppm treatment): 4.08 log cfu/ml
reduction in organisms in the effluent water ([8]; after the first 500 ppm treatment): 83 fold
reduction of unit's count ([8]; after the first 500 ppm treatment (day 0 to day 1)): 1.92 logs
Unit Microbial Count ([8]; day 1, one day after first 30-min 500 ppm treatment (day 0)): 2.66 log cfu/ml
Unit Microbial Count ([8]; day 4, four days after first 500 ppm treatment): 4.66 log cfu/ml
Unit Microbial Count ([8]; day 8, one day after second 500 ppm treatment): 3.04 log cfu/ml
Unit Microbial Count ([8]; day 11, four days after second 500 ppm treatment, before third): 4.18 log cfu/ml
Unit Microbial Count ([8]; day 12, one day after third 500 ppm treatment): 1.60 log cfu/ml
Unit Microbial Count ([8]; day 15, four days after third 500 ppm treatment): 3.15 log cfu/ml
reduction in the effluent's cfu/ml ([9]; after day two vs T=0, 1000 ppm, 30 min): 27 fold
difference from T=0 ([9]; after day two, 1000 ppm, 30 min): 1.43 logs
DWU effluent count relative to tap water ([9]; day 3 after treatment, 1000 ppm, 30 min): approximated that of the tap water
Microbial count of unit effluent water ([9]; 1 day after 30-min treatment with 1000 ppm ClO2): 1.90 log cfu/ml and 2.08 log cfu/ml and 2.45 log cfu/ml and 3.85 log cfu/ml and 2.30 log cfu/ml and 1.30 log cfu/ml
Microbial count of unit effluent water ([9]; 2 days after 30-min treatment with 1000 ppm ClO2): 2.78 log cfu/ml and 3.56 log cfu/ml and 3.86 log cfu/ml and 3.32 log cfu/ml and 2.51 log cfu/ml and 3.03 log cfu/ml
Microbial count of unit effluent water ([9]; 3 days after 30-min treatment with 1000 ppm ClO2): 3.94 log cfu/ml and 3.85 log cfu/ml and 5.25 log cfu/ml and 4.34 log cfu/ml and 2.62 log cfu/ml and 2.81 log cfu/ml
Microbial count of unit effluent water, mean ([9]; 1 day after 30-min 1000 ppm ClO2): 2.31 log cfu/ml
Microbial count of unit effluent water, mean ([9]; 2 days after 30-min 1000 ppm ClO2): 3.18 log cfu/ml
Microbial count of unit effluent water, mean ([9]; 3 days after 30-min 1000 ppm ClO2): 3.80 log cfu/ml
drop in bacterial colonies per ml of effluent water ([9]; one day after treatment vs T=0, 1000 ppm, 30 min): 2.3 log
bacterial colonies per ml of effluent water ([9]; one day after treatment, numerical value of mean, 1000 ppm, 30 min): 204 colonies per ml

povidone-iodine
numbers of bacteria after treatment [10]: greatly reduced
regrowth of bacteria after treatment [10]: quickly begin to rise after eight days
